Results taken from patent US9233932B2, “Oligomer-nitroimidazole anti-infective conjugates” (NEKTAR THERAPEUTICS, priority 2007, dated 2016).
Values after ≈ are worked out from the molar mass of the structure shown. Like-named read-outs stand apart in the source and are kept apart here.

Legend:
[1] = system: Giardia intestinalis; assay: In vitro antigiardial activity assay; format: cell-based
Method: Metronidazole (from two different sources) and samples prepared in accordance with Examples 1 and 2 were tested using conventional antimicrobial assay techniques for in vitro antigiardial activity at six concentrations with three-fold dilutions (10, 3.3, 1.1, 0.37, 0.122, 0.04 μg/mL). IC50 values (inhibition concentration) were determined.

[2] = system: Giardia intestinalis Portland-1 (ATCC 30888); assay: Minimum inhibitory concentration determination, micro-broth dilution, trophozoite motility; format: cell-based; settings: for Fold Difference (Parent vs. Derivative): MIC of derivative relative to metronidazole; for activity relative to parent metronidazole: qualitative statement on MIC results
Method: Briefly, minimum inhibitory concentration was evaluated in an anti-protozoal assay against a protozoan strain, Giardia intestinalis Portland-1 (ATCC 30888), isolated from human. The organism, also referred to as Giardia lamblia, causes infection in the small intestine.
The susceptibility of G. intestinalis to the test compounds was determined using the micro-broth dilution analysis. The protozoan strain was cultured according to the supplier's recommendations. Thirteen milliliters of growth media (TYI-S-33 supplemented with bile) was inoculated with 100 μL of G. intestinalis growing culture and incubated at 37° C. for 72 hours. Following incubation, each test compound was diluted (in growth medium) to two times the high test concentration then further diluted in 1:2 increments to yield 11 test concentrations. Each test concentration (100 μL) was added in triplicate to designated wells on the plate. Trophozoites were added to each well of a 96-well round bottom plate in a volume of 100 μL at a density of 40,000 per well. The plates were cultured for 24 hours in an anaerobic chamber to assure the presence of low oxygen level.
Following the treatment incubation, cultures were visually evaluated for trophozoite motility. At each concentration, data was recorded as positive or negative for motility.
Each test compound was dissolved in DMSO to a final concentration of 80 mM. […] The starting high test concentration was to be as high as possible.

[3] = average IC50 converted with MW, read-out: μM IC50
[4] = replicate 1, six concentrations, three-fold dilutions 10-0.04 μg/mL
[5] = replicate 2, six concentrations, three-fold dilutions 10-0.04 μg/mL
[6] = replicate 3, six concentrations, three-fold dilutions 10-0.04 μg/mL
[7] = lowest concentration completely inhibiting trophozoite motility, 24 hours, anaerobic chamber

| Compound | IC50 [1, 3] [µM] | Average IC50 ([1]; average of IC50 1-3) [µg/mL] | Fold Difference (Parent vs. Derivative) [2] | IC50 1 [1, 4] [µg/mL] | IC50 2 [1, 5] [µg/mL] | IC50 3 [1, 6] [µg/mL] | MIC [2, 7] [µg/mL] | activity relative to parent metronidazole [2] | other results |
| --- | --- | --- | --- | --- | --- | --- | --- | --- | --- |
| Cc1ncc([N+](=O)[O-])n1CCO [Metronidazole, reference compound] | 3.96 | 0.68 | 1 | – | – | – | – | – | IC50 ([1]; Giardia duodenalis, average IC50 converted with MW, read-out: μM IC50): 3.41 µM; IC50 ([1]; Giardia duodenalis, average of IC50 1-3, read-out: Average IC50): 0.58 µg/mL; IC50 ([1]; Giardia duodenalis, replicate 1, six concentrations, three-fold dilutions 10-0.04 μg/mL, read-out: IC50 1): 0.75 µg/mL; IC50 ([1]; Giardia duodenalis, replicate 2, six concentrations, three-fold dilutions 10-0.04 μg/mL, read-out: IC50 2): 0.3 µg/mL; IC50 ([1]; Giardia duodenalis, replicate 3, six concentrations, three-fold dilutions 10-0.04 μg/mL, read-out: IC50 3): 0.7 µg/mL; MIC ([2]; Giardia duodenalis, ATCC30888, Giardia intestinalis, read-out: MIC): 3.9 µg/mL (≈ 22.8 µM); MIC ([2]; Giardia duodenalis, ATCC30888, lowest concentration completely inhibiting trophozoite motility, 24 hours, anaerobic chamber, read-out: MIC): 3.9 µg/mL (≈ 22.8 µM) |
| COCCOCCOCCOCCOCCOCCOCCOC(=O)OCCn1c([N+](=O)[O-])cnc1C [PEG7 Metronidazole carbonate, mPEG7 metronidazole carbonate] | 7.51 | 4.03 | – | 4.5 (≈ 8.37 µM) | 4.2 (≈ 7.81 µM) | 3.4 (≈ 6.32 µM) | – | – | – |
| COCCOCCOCCOC(=O)OCCn1c([N+](=O)[O-])cnc1C [mPEG3 metronidazole carbonate] | 2.88 | 1.04 | 2 | 0.82 (≈ 2.27 µM) | 1.1 (≈ 3.04 µM) | 1.2 (≈ 3.32 µM) | 7.8 (≈ 21.6 µM) | – | MIC ([2]; Giardia intestinalis): 7.8 µg/mL (≈ 21.6 µM) |
| COCCOCCOCCOCCOCCOCCOCCOCCOCCOCCOCCOC(=O)OCCn1c([N+](=O)[O-])cnc1C [mPEG11 metronidazole carbonate] | – | – | 256 | – | – | – | 1000 (≈ 1400 µM) | reductions of activity | – |
| mPEG1k metronidazole carbonate | – | – | >256 | – | – | – | >1000 | reductions of activity | – |
| mPEG21, metronidazole carbonate [mPEG21 metronidazole carbonate] | – | – | 256 | – | – | – | 1000 | reductions of activity | – |
